Reference: patent publication US10632209B2, “ASH1L inhibitors and methods of treatment therewith” (The Regents of the University of Michigan, priority 2017, dated 2020)

Legend:
MOLM13 = experiment: MTT cell viability assay, MOLM13; format: cell-based, Human; conditions: MOLM13, 14 days of treatment
Experimental: (§1) Human leukemia cells were plated at 1×10^5 cells/ml in 24-well plates, treated with 0.25% DMSO or compounds and cultured at 37° C. for 7-14 days. Every four days, the volume corresponding to 1×10^5 cells of DMSO-treated cells was spun down and resuspended in fresh media with fresh compound. At day 0 and each four day interval, 100 μl aliquots of the cell suspension were transferred to 96-well plates in quadruplicates. The quadruplicate samples were incubated for 4 days at 37° C., and then an MTT cell proliferation assay kit (Roche) was used to measure viable cells. Absorbance was read at 570 nm using a PHERAstar (BMG) microplate reader.

[1] = tested on: normal human hematopoietic hCD34+ cells; experiment: Toxicity to normal hematopoietic hCD34+ cells; format: cell-based
[2] = tested on: MLL fusion target genes (HOXA genes, MEIS1, MEF2C), MNDA; experiment: Quantitative RT-PCR of MLL fusion target genes and MNDA; format: cell-based; conditions: dose-dependent manner
Experimental: Total RNA was extracted from cells using the RNeasy mini kit (QIAGEN), and then 100-2000 ng of total RNA was reverse transcribed using the High Capacity cDNA Reverse Transcription Kit (Applied Biosystems) according to the manufacturer's protocol. Real-time PCR was performed using a CFX96 Real-Time PCR Detection System (Biorad). TaqMan Gene Expression Master Mix and TaqMan Gene Expression Assays were purchased from Thermo Fisher. Relative quantification of each gene transcript was carried out using the ΔΔCt method as described in the Biorad Real-Time PCR Applications Guide.

KOPN8 = experiment: MTT cell viability assay, KOPN8; format: cell-based, Human; conditions: KOPN8, 14 days of treatment
Experimental: as §1

MV4;11 cells = experiment: Differentiation of MV4;11 cells (Cytospin/Wright-Giemsa staining); format: cell-based, Human; conditions: 7 days of treatment
Experimental: Cytospin/Wrigtht-Giemsa Staining
1×10^5 of MV4;11 cells treated with compounds or DMSO were harvested and placed in a Shandon EZ Single Cytofunnel (Thermo Fisher). Samples were centrifuged at 600 rpm for 5 min. The slides were air dried before staining with a Hema-3 kit (Thermo Fisher).

SEM cells = experiment: MTT cell viability assay, SEM; format: cell-based, Human; conditions: 14 days of treatment
Experimental: as §1

MV4;11 = experiment: MTT cell viability assay, MV4;11; format: cell-based, Human; conditions: MV4;11, 14 days of treatment
Experimental: as §1

K562 (CML cell line) = experiment: MTT cell viability assay, K562 control cell line; format: cell-based, Human; conditions: 14 days of treatment
Experimental: as §1

[3] = target: T1, ASH1L SET-BAH construct (amino acids 2069-2833) (Homo sapiens, UniProt Q9NR48); experiment: ASH1L histone methyltransferase (HMT) assay; format: biochemical; conditions: read-out: IC50 value measured in histone methyltransferase (HMT) assay
T1 construct: ASH1L SET-BAH construct (amino acids 2069-2833); His tag (implied only by nickel-NTA purification); made in house; host or cells: E. coli BL21(DE3) T1R
Experimental: ASH1L SET protein was expressed as MOCR fusion proteins in E. coli BL21(DE3) T1R cells at 22° C. Transformed cells were lysed in buffer A containing 50 mM Tris (pH 7.5), 500 mM NaCl, 1 mM tris(2-carboxyethyl)phosphine (TCEP), and 20 mM imidazole. Cell debris was pelleted by centrifugation, and the supernatant was loaded on a column packed with nickel-nitrilotriacetic acid beads. The column was washed with buffer A and protein eluted with a 100 mL linear gradient up to buffer A containing 500 mM imidazole. The MOCR tag was cleaved with tobacco etch virus (TEV) protease during overnight dialysis against 50 mM Tris (pH 7.5), 100 mM NaCl, and 1 mM TCEP. Cleaved ASH1L was isolated from MOCR by repeating the nickel column purification and collecting ASH1L in the flow-through and low-imidazole fractions. ASH1L was further purified by gel filtration chromatography using a Superdex-75 column running in buffer B containing 50 mM Tris (pH 7.5), 100 mM NaCl, and 1 mM TCEP. ASH1L SET-PHD and SET-BAH proteins were purified similarly, with the following differences. […]
Chicken mono/dinucleosomes (HMT-35-179), chicken oligo nucleosomes (HMT-35-177), and HeLa nucleosomes (HMT-35-123) were purchased from Reaction Biology. […] The P81 squares were then dried for 1 h, added to 10 mL of Ultima Gold scintillation cocktail (PerkinElmer), and analyzed using a Beckman scintillation counter.

[4] = tested on: MV4;11 xenotransplantation mouse models of MLL leukemia; experiment: MV4;11 xenotransplantation mouse model of MLL leukemia; format: in vivo, mice; conditions: i.p.
Experimental: Immunocompromised 8-10 week-old female NSG mice were used for in vivo efficacy studies in accordance with IACUC guidelines. Luciferase expressing human MV4;11 leukemia cells (MV4;11-luc) were engrafted intravenously via tail vein injection (1×10^7 cells/animal). Five days after transplantation mice were randomly assigned to a vehicle control or a compound treatment group (6-7 animals per group). […] Body weight was measured daily, while mean luminescence signal was measured at days 6, 13 and 19 post-transplantation in all mice. […]

## CC1CN(S(C)(=O)=O)CCC1n1cc(-c2cccc(C(N)=S)c2)c2ccc(N)cc21 (centres unmarked) [Compound 22]
MOLM13
  growth inhibition / proliferation, MTT assay: growth inhibition
[1]
  toxicity to normal human hematopoietic hCD34+ cells: not toxic
[2]
  expression level of MNDA differentiation marker: increase the expression level
  expression of MLL fusion target genes (HOXA genes, MEIS1, MEF2C): downregulates expression
KOPN8
  growth inhibition / proliferation, MTT assay: growth inhibition
MV4;11 cells
  differentiation in MV4;11 cells: induces differentiation

## CC(C)S(=O)(=O)N1CCC(n2cc(-c3cccc(C(N)=S)c3)c3ccc(CNc4nnc(N)s4)cc32)CC1 [Compound 34]
MOLM13
  growth inhibition / proliferation, MTT assay: inhibits proliferation
KOPN8
  growth inhibition / proliferation, MTT assay: inhibits proliferation
SEM cells
  proliferation, MTT cell viability assay: inhibits proliferation
MV4;11
  proliferation, MTT cell viability assay: inhibits proliferation
K562 (CML cell line)
  proliferation, MTT cell viability assay: but not control cell line K562

## COCCC(=O)Nc1ccc2c(-c3cccc(C(N)=S)c3)cn(C3CCN(S(C)(=O)=O)CC3)c2c1 [Compound 37]
[3]
  IC50: 750 nM

## Cl.NC(=S)c1cccc(-c2cn(C3CCN(S(=O)(=O)C(F)(F)F)CC3)c3cc(CNC(=O)C4CNC4)ccc23)c1 [Compound 59, N-((3-(3-carbamothioylphenyl)-1-(1-((trifluoromethyl)sulfonyl)piperidin-4-yl)-1H-indol-6-yl)methyl)azetidine-3-carboxamide hydrochloride salt]
[4]; 7 days of treatment, 40 mg/kg, q.d.
  leukemia progression, bioluminescence level in mice: slows down leukemia progression
[4]; 21 days of treatment, 25 mg/kg, b.i.d.
  leukemia progression, flow cytometry of hCD45+ cells in spleen: inhibits leukemia progression
